According to ChEMBL document CHEMBL5096229, “A 1,2,3-Triazole Derivative of Quinazoline Exhibits Antitumor Activity by Tethering RNF168 to SQSTM1/P62” (J Med Chem, 2022):
Active and inactive are the calls of the source. No cut-off for these calls is given here.

How the values were obtained:
[1] = Toxicity in BALB/c mouse assessed as maximum tolerable dose; conditions: in vivo
[2] = AUCt in BALB/c mouse at 20 mg/kg; assay type: ADME, organism-based; parameters: dose 20 mg/kg; conditions: in vivo
[3] = system: HCT-116; assay: Induction of x-ray sensitivity in human HCT-116 cells; assay type: functional, cell-based
[4] = system: HCT-116; assay: Antitumor activity against human HCT-116 cells xenografted with BALB/c nude mouse assessed as increase in cleaved PARP1 positive tumor cells at 5 to 10 mg/kg, ip administered every 3 days upto 22 days by immuno histochemistry assay; assay type: functional, organism-based; conditions: dose 5-10 mg/kg, time <= 22.0 day
[5] = Half life in BALB/c mouse at 5 mg/kg; assay type: ADME, organism-based; conditions: in vivo
[6] = system: HeLa; assay: Induction of x-ray sensitivity in human HeLa cells; assay type: functional, cell-based
[7] = Toxicity in BALB/c nude mouse assessed as animal death 12.5 mg/kg, ip after 7 days; assay type: organism-based; conditions: in vivo, 168 h, time 7 day
[8] = Clearance in BALB/c mouse at 10 mg/kg; assay type: ADME, organism-based; conditions: in vivo
[9] = Clearance in BALB/c mouse at 5 mg/kg; assay type: ADME, organism-based; conditions: in vivo
[10] = Toxicity in BALB/c nude mouse assessed as maximum tolerable dose; conditions: in vivo
[11] = system: HeLa; assay: Cytotoxicity against human HeLa cells assessed as reduction in cell viability incubated for 72 hrs by MTS assay; assay type: functional, cell-based

Structure (SMILES): COc1cc(-n2cc(-c3ccc4nc(N)nc(N)c4c3)nn2)cc(OC)c1OC
- MTD [1]: 50 mg/kg
- AUC(0-t) [2]: 1000 ng·h/mL
- Activity [3]: Active
- Activity [4]: Active
- half-life [5]: 16.2 h
- Activity [6]: Active
- Activity [7]: Toxic
- clearance [8]: 276 mL/min/kg
- clearance [9]: 327 mL/min/kg
- MTD [10]: 12.5 mg/kg
- IC50 [11]: 2480 nM
